Measured values reported in patent US6468987B1, “Nutritional product for a person having ulcerative colitis” (Abbott Laboratories, priority 1994, dated 2002).
Marks after values point to notes of the source that are not given here.

Assays:
[1] = tested on: distal colitis induced by peptidoglycan/polysaccharide (PG/PS); test: PG/PS-induced acute and chronic distal colitis in rats; type: in vivo, Female Lewis rats
Protocol: For these reasons, a model of acute and chronic distal colitis in rats was developed based upon a previously published method in which purified bacterial cell wall polymers (derived from Group A streptococci) are injected intramurally into the distal colon of genetically-susceptible rats. Sartor et al., “Granulomatus Entercolitis Induced by Purified Bacterial Cell Wall Fragments”, GASTROENTEROLOGY, Vol. 89, pages 587-595 (1985). This model produces an acute and chronic inflammation characterized by the infiltration of large numbers of inflammatory cells, enhanced mucosal permeability, interstitial fibrosis, and mucosal thickening as well as the extraintestinal manifestations of arthritis, hepatic and splenic granulomas. Unlike most models of colitis, the inflammation induced in this model promoting mucosal and submucosal injury rather than the injury causing the inflammation.
In Experiment 2 the objectives were: (a) to determine whether this model of colitis responds to sulfasalazine (SAZ) and (b) to assess the effects of specially formulated enteral diets on the injury and inflammation observed in the colon, liver and spleen.
Female Lewis rats (150-175 g) were maintained in a controlled temperature and light-dark cycle (12 hours:12 hours) and housed in wire-mesh bottomed cages and given water and standard laboratory rat chow ad libitum. A total of 48 rats were divided into 6 groups of 8 rats each consisting of a sham (rats receiving Diet #1 {base diet} with no peptidoglycan/polysaccharide {PG/PS} injection) control group, a chow group and 4 groups of rats placed on 4 different polymeric diets (Table 6). Rats received either chow or polymeric diets (320 kcals/kg/day or 60 mL of liquid diet/day) for 7 days preceding induction of colitis. Distal colitis was induced by a modification of the method of Sartor et al in which multiple sites (8-9) along the distal colon were injected intramurally with 60 ul/site to deliver a dose of peptidoglycan/polysaccharide (PG/PS) of 12.5 ug/g body weight. The albumin (sham) control group received the same number of injections of human serum albumin into the distal colon.
Total dietary intake and body weights of the control and liquid diet groups were recorded for each 24 hour period during the course of the 4 week experiment (1 week prior to the induction of colitis and 3 weeks following PG/PS or albumin injection).
To assess the effects of SAZ in this model, female Lewis rats were orally administered SAZ immediately following the induction of colitis. Rats were given chow ad libitum for the duration of the four week study period. Similar measurements were assessed as described below.
All rats receiving nutritional therapy or SAZ were euthanized with an overdose of pentobarbital and the distal colon and cecum were excised and opened longitudinally. The length and weight of the perfused segment were recorded and the tissue divided longitudinally into three strips for wet-to-dry ratios, histology and myeloperoxidase (MPO) determinations. Colonic MPO activity was determined in which 3,3′ 5,5′ tetramethylbenzidine was used as the electron donating substrate and hexadecyltrimethylammonium hydroxide was used as the detergent. Spleen and liver weights were recorded. Circulating levels of nitrate and nitrite were also quantified using the Griess reagent and used as indices of immune system activation (i.e. activation of the reticuloendothelial system {nitric oxide synthase}). The studies were analyzed as a completely randomized design. Treatment differences were separated using an F-protected least significant difference (LSD) method. In both studies additional chow fed control animals that were treated under laboratory conditions described above were incorporated in the statistical analysis.

[2] = tested on: active ulcerative colitis; conditions: dietary supplementation; cited from earlier work
[3] = SAZ orally from induction of colitis, chow fed PG/PS rats, least square means
[4] = oral SAZ vs PG/PS treated animals and sham control
[5] = oral SAZ vs chow fed group receiving PG/PS

Compound | COLON WT [1, 3] | Liver wt [1, 3] | MPO ACTIVITY [1, 3] | Spleen wt [1, 3] | liver weight, in words [1, 4] | spleen weight, in words [1, 4] | colon weight, in words [1, 5] | increases in MPO activity, in words [1, 5] | histological inspection of the SAZ-treated tissue ([1]; oral SAZ, PG/PS colitis) | eicosanoid levels from rectal dialysate fluid [2]
O=C(O)c1cc(/N=N/c2ccc(S(=O)(=O)Nc3ccccn3)cc2)ccc1O [SAZ, sulfasalazine] | .021 ± .004^a,b g dry wt/cm | 34.0 ± 3.6^b mg/g bw | 1.40 ± 2.9^b units/cm colon | 2.92 ± 1.3^b mg/g bw | significantly lower than the PG/PS treated animals and comparable to the sham control | significantly lower than the PG/PS treated animals and comparable to the sham control | tended to reduce | significantly attenuated | inhibition of leukocyte infiltration and fibrosis | –
vitamin E | – | – | – | – | – | – | – | – | – | not to promote changes
